Assay [1] deals with Tyr mice. Nature of the assay: Developmental milestone assessment of Tyr mouse pups. It is filed as in vivo. Details: key to NAP efficacy: global developmental delays: corrections by NAP treatment (+). As for the experimental part:
Animals—Animals were housed under a 12-hour light/dark cycle, with food and water ad-libitum. Mouse pups were subcutaneously administrated with NAP [having an amino acid sequence NAPVSIPQ (SEQ ID NO: 2), 25 μg NAP/1 ml saline] as described (8, 12). At 21 days of age mice were administered daily intranasal NAP in vehicle solution (“DD”—7.5 mg/ml of NaCl, 1.7 mg/ml of citric acid, 3 mg/ml of disodium phosphate dihydrate, and 0.2 mg/ml of 50% benzalkonium chloride solution) (0.5 μg NAP/5p1 DD) (8, 9, 12, and U.S. Pat. No. 10,912,819 to Gozes). These mice continued to behavioral analysis as described hereinbelow. The noninvasive intranasal route was chosen as these experiments required daily handling and administration. Age (weeks) of mice during behavioral experiments (mean±SEM) was as follows: Catwalk-9.23±0.15, grooming-10±0.15, social approach-10.5±0.12, odor-discrimination-12.12±0.13, hanging-wire-13±0.14, hotplate-13.18±0.13. Group size was determined following previous experiments (12). Pups were randomly allocated to either the NAP or DD group according to sex and genotype. All procedures involving animals were conducted under the supervision and approval of the institutional animal care and use committee of Tel Aviv University and the Israeli Ministry of Health.
Developmental milestone assessment and fostering—This experiment included animals from 16 litters in 2 experimental batches. It was performed as previously described (12) with slight modifications. Experimenters were blinded to sex and genotype during experimental procedures. Sexes were grouped if no statistically significant sex differences were discovered.
Developmental milestone assessment: At p1 Tyr pups were tattooed and genotyped for the presence of the Tyr718 mutation and SRY as described above. The same day pups were randomized to either NAP or Saline treatment groups according to genotype and sex results and developmental milestone assessment was performed from p1 to p21. As animal randomization ended up with unequal male/female ratios for certain groups and no statistical differences were found between the sexes in any of the 4 treatment groups (T test), the sexes could not be separated, [That is except for eye opening, where a significant difference was observed between the sexes in the Tyr group (P=0.047, no significance in the other three treatment groups)]. Pup paws were tattooed using a 31-gauge needle and tattoo ink (Ketchum Manufacturing Co., catalog 329AA) for identification on P1 and, until P21, underwent daily measurements for length and weight and observation for eye opening. Pups were injected daily with NAP, 1 hour prior to the tests as previously described^1.
Briefly, for ear twitch reflex, a cotton tip was gently brushed against the tip of the ear three times, between postnatal days 7-15 or until the pup responded correctly for two consecutive days. For air righting reflex, the pup was held up-side down and released ˜10.5 cm above the cage, containing 5 cm of shavings. The test was performed between postnatal days 8-21 or until the pup landed on the shavings with all four paws, for two consecutive days. For surface righting reflex, pups were placed on their backs on a level surface, the test was performed between postnatal days 1-13 until the pups was able to right itself with all four paws on the surface in under a second for two consecutive days. For eye opening, mice were observed daily until both eyes were open (eyelids separated completely). For auditory startle, the pup was placed on a level surface and the experimenter clapped loudly twice until a visible startle response was evident for 2 consecutive days. The test was performed between days 7-18. For cliff aversion, pups were placed on the edge of a small box (approx. 4 cm in height) with both paws protruding over the edge of the box. Pups were allowed 30 sec to avoid the cliff and move themselves backwards. […]

Assay [2] deals with N1E-115 cells. Nature of the assay: Polymerized vs. soluble tubulin assay. It is filed as cell-based, mouse. The following applies: zinc 400 μM, 4 h, peptide 10^−12 M. Here is the method: Polymerized vs. soluble tubulin assay—To quantify tubulin polymerization and Tau-MT association, a simple assay was performed as previously described. The cells grown to confluence in six-well plates were washed with MT buffer (80 mM PIPES pH 6.8, 1 mM MgCl^2, 2 mM EGTA, 5% Glycerol) and lysed at room temperature for 5 min through centrifugation (300 g), with 150 μl of MT buffer with 0.5% Triton X-100 to extract soluble (cytosolic) tubulin (S). The pelleted cells were rinsed once again with an equal volume of modified RIPA lysis buffer (50 mM Tris-HCL pH 7.4, 150 mM NaCl, 2 mM EGTA, 1% Triton X-100, 0.1% SDS, 0.1% sodium Deoxycholate) to collect the polymerized (cytoskeletal) tubulin (P). The cytosolic and cytoskeletal fractions were each mixed with sample buffer and heated at 95° C. for 5 min. An equal volume of each fraction was analyzed by immunoblotting with Tau, tubulin and actin antibodies, and the results following ECL development were quantified by densitometry (GelQuant.NET software provided by biochemlabsolutions(dot)com).
It is known that in the presence of extracellular zinc NAP protects MT against degradation by promoting Tau binding to the MT shaft. Polymerized vs. soluble tubulin assay was effected to compare protective activities of NAP and SKIP against MT degradation and Tau-MT dissociation (FIGS. 11F-G). After treatments with zinc (400 μM, 4 h) with and without NAP or SKIP (10^−12 M, 4 h) the cellular-tubulin pool was separated into polymerized and soluble tubulin fractions. The amount of Tau, tubulin, and actin was identified by immunoblotting (FIG. 11F), followed by densitometric quantification (FIG. 11G).

For `CC[C@H](C)[C@H](NC(=O)[C@H](CO)NC(=O)[C@@H](NC(=O)[C@@H]1CCCN1C(=O)[C@H](C)NC(=O)[C@@H](N)CC(N)=O)C(C)C)C(=O)N1CCC[C@H]1C(=O)N[C@@H](CCC(N)=O)C(=O)O` [NAP, NAPVSIPQ], the Rooting reflex entry in assay [1] (Tyr mice, data not shown) is “induced rooting”. Besides, the “NAP efficacy: global developmental delays” value in assay [1] (Tyr mouse, first symbol of cell) is given as “+/+”. Also, the “Surface-righting, first day of acquisition” value in assay [1] (Tyr pups, daily s.c. NAP, WT 8.69±0.42, Tyr 10.14±0.36, mean±SEM) was 8.81±0.33. Further, in assay [1] (Tyr pups, daily s.c. NAP, WT 12.96±0.28, Tyr 15.29±0.15, mean±SEM), the “Air-righting, first day of acquisition” value was determined as 14.63±0.38. In addition, the Body weight entry in assay [1] (WT female mice, data not shown) was “no effect”; in assay [1] (female Tyr pups, P1-P21), “beneficial effect was visible from P10 and reached significance at P20-21”. Also, the Eye opening entry is “no NAP effect” in assay [1] (WT females, data not shown) and “No genotype/NAP effect” in assay [1] (males, data not shown). For the same molecule, the “Developmental milestones in WT littermates” value in assay [1] (WT littermates, data not shown) is recorded as “no effect on WT littermates except for the cliff aversion response”. Moreover, the “Eye opening (day)” value in assay [1] (female Tyr pups, Tyr 16±0.37, WT 14.93±0.43) was 14.78±0.46. The “Protection against Tau dissociation from MTs” value in assay [2] is on record as “only NAP exhibited protection”. The “Protection of polymerized tubulin against zinc-induced decay” value in assay [2] is recorded as “protected against zinc-induced decay”.

The record behind these values is patent publication US20250032580A1, “USE OF ADNF POLYPEPTIDES IN THERAPY” (RAMOT AT TEL-AVIV UNIVERSITY LTD., priority 2021, published 2025).
